In US20060079493A1, “Methods for treating genetically- defined proliferative disorders with hsp90 inhibitors” (priority 2001, published 2006):
Read-outs that look alike come from different tables or passages of the source.

How the values were obtained:
[1] = test system: RPTEC; test: MTS assay, cytotoxicity (growth inhibition) on normal cells RPTEC; type: cell-based; details: for Metabolic Activity RPTEC: MTS, 3-6 days, DMSO control = 100%; for IC50: read-out: RPTEC IC50
Experimental: (§1) To K562 cells (suspension grown in DMEM media supplemented w/10% Fetal Bovine Serum (FBS) and 1 mM HEPES; subcultured biweekly at 100K cells/ml) in a 96 well plate (0.1 ml medium; 2000 cells per well) were added various concentrations of 17-AAG (CF7) and the effects measured over a period of 3-6 days using an MTS assay protocol similar to that offered by Promega Corp (Madison, Wis., US; cat# G5421).
(§2) The MTS assay is a colorimetric assay for determining the number of viable cells in proliferation, cytotoxicity or chemosensitivity assays. The CellTiter 96® AQueous Assay is composed of solutions of tetrazolium compound (3-(4,5-dimethylthiazol-2-yl)-5-(3-carboxymethoxyphenyl)-2-(4-sulfophenyl)-2H-tetrazolium, inner salt; MTS) and an electron coupling reagent (phenazine methosulfate) PMS. MTS is bioreduced by cells into a formazan that is soluble in tissue culture medium. Barltrop et al. (1991) Bioorg. & Med. Chem. Lett. 1, 611. The absorbance of the formazan at 490 nm can be measured directly from 96 well assay plates without additional processing. Cory et al. (1991) Cancer Commun. 3, 207; Riss, T. L. and Moravec, R. A. (1992) Mol. Biol. Cell 3 (Suppl.), 184a. The conversion of MTS into the aqueous soluble formazan is accomplished by dehydrogenase enzymes found in metabolically active cells. The quantity of formazan product as measured by the amount of 490 nm absorbance is directly proportional to the number of living cells in culture.
(§3) Using the MTS assay, cytotoxicity (defined as “growth inhibition” and not necessarily versus renal proximal tubular […] cells (normal cells) was determined as shown in the following Tables. “Sem” refers to standard error of the mean, which is calculated as the standard deviation divided by the square root of the sample size; the numbers reflect triplicate replicates. Dilutions of the compounds were prepared in DMSO and straight DMSO was used as a control corresponding to 100% metabolic activity.

[2] = test system: K562 cells; test: MTS assay, cytotoxicity (growth inhibition) on K562; type: cell-based, human; details: for Metabolic Activity K562: MTS, 3-6 days, DMSO control = 100%
Experimental: The cell line is widely available, e.g., from American Type Culture Collection (“ATCC”; Manassas, Va., USA; cat# CCL-243) and can be propogated in a variety of media, e.g., ATCC's Iscove's modified Dulbecco's medium with 4 mM L-glutamine adjusted to contain 1.5 g/L sodium bicarbonate, 90%; fetal bovine serum, 10%; 37C.
as §1, §2, §3

[3] = test system: bcr-abl-negative leukemia lines; details: mean of four cell lines; read-out: mean IC50 in a panel of four bcr-abl-negative leukemia lines; cited from earlier work
[4] = test system: bcr-abl expressing leukemia cell lines; details: average of six cell lines; read-out: IC50 averaged in six bcr-abl expressing leukemia cell lines; cited from earlier work
[5] = Homo sapiens, K562, read-out: K562 IC50
[6] = separate study, compared with compound 237

Q: With `C=CCNC1=C2C[C@@H](C)C[C@H](OC)[C@H](O)[C@@H](C)/C=C(\C)[C@H](OC(N)=O)[C@@H](OC)/C=C\C=C(/C)C(=O)NC(=CC1=O)C2=O` [CF7, 17-allylamino-17-demethoxygeldanamycin] as the compound, how does the “Metabolic Activity RPTEC” value ([1]; 0.0003 uM) read?
A: 98.69%

Q: What about the “Metabolic Activity RPTEC” value ([1]; 0.0010 uM) of the same compound?
A: 92.26%

Q: What about the “Metabolic Activity RPTEC” value ([1]; 0.0030 uM) of the same compound?
A: 92.73%

Q: And the “Metabolic Activity RPTEC” value ([1]; 0.0100 uM)?
A: 91.81%

Q: What about the “Metabolic Activity RPTEC” value ([1]; 0.0300 uM) of the same compound?
A: 86.40%

Q: What about the “Metabolic Activity RPTEC” value ([1]; 0.1000 uM) of the same compound?
A: 86.46%

Q: And the “Metabolic Activity RPTEC” value ([1]; 0.3000 uM)?
A: 58.03%

Q: And the “Metabolic Activity RPTEC” value ([1]; 1.0000 uM)?
A: 34.01%

Q: What about the “Metabolic Activity RPTEC” value ([1]; 3.0000 uM) of the same compound?
A: 22.01%

Q: And the “Metabolic Activity RPTEC” value ([1]; 10.0000 uM)?
A: 20.10%

Q: What about the IC50 ([1]; normal cells, MTS assay) of the same compound?
A: 0.4 µM

Q: And the “Metabolic Activity K562” value ([2]; 0.0003 uM)?
A: 88.00%

Q: And the “Metabolic Activity K562” value ([2]; 0.0010 uM)?
A: 83.81%

Q: What about the “Metabolic Activity K562” value ([2]; 0.0030 uM) of the same compound?
A: 83.00%

Q: And the “Metabolic Activity K562” value ([2]; 0.0100 uM)?
A: 85.94%

Q: What about the “Metabolic Activity K562” value ([2]; 0.0300 uM) of the same compound?
A: 80.12%

Q: What about the “Metabolic Activity K562” value ([2]; 0.1000 uM) of the same compound?
A: 44.06%

Q: What about the “Metabolic Activity K562” value ([2]; 0.3000 uM) of the same compound?
A: 14.40%

Q: And the “Metabolic Activity K562” value ([2]; 1.0000 uM)?
A: 9.51%

Q: And the “Metabolic Activity K562” value ([2]; 3.0000 uM)?
A: 8.12%

Q: What about the “Metabolic Activity K562” value ([2]; 10.0000 uM) of the same compound?
A: 7.89%

Q: What about the IC50 ([2]; bcr-abl fusion protein cancer line, MTS assay, read-out: K562 IC50) of the same compound?
A: 0.07 µM

Q: Which IC50 ([1]; Homo sapiens, RPTEC) does the source give for `COC1/C=C\C=C(/C)C(=O)NC2=CC(=O)C(NCCCN(C)CCCNC3=C4CC(C)CC(OC)C(O)C(C)/C=C(\C)C(OC(N)=O)C(OC)/C=C\C=C(/C)C(=O)NC(=CC3=O)C4=O)=C(CC(C)CC(OC)C(O)C(C)/C=C(\C)C1OC(N)=O)C2=O` (stereo not shown) [Compound 208] here?
A: 1 µM

Q: What about the IC50 [2, 5] of the same compound?
A: 0.05 µM

Q: For `COC1/C=C\C=C(/C)C(=O)NC2=CC(=O)C(NCCCNCCCNC3=C4CC(C)CC(OC)C(O)C(C)/C=C(\C)C(OC(N)=O)C(OC)/C=C\C=C(/C)C(=O)NC(=CC3=O)C4=O)=C(CC(C)CC(OC)C(O)C(C)/C=C(\C)C1OC(N)=O)C2=O` (stereo not shown) [Compound 237], which IC50 ([1]; Homo sapiens, RPTEC) is on record?
A: 4 µM

Q: What about the IC50 [2, 5] of the same compound?
A: 0.1 µM

Q: Which results are given for `CCCNC/C=C/CNC1=C2CC(C)CC(OC)C(O)C(C)/C=C(\C)C(OC(N)=O)C(OC)/C=C\C=C(/C)C(=O)NC(=CC1=O)C2=O` (stereo not shown) [Compound 481]?
A: IC50 ([1]; Homo sapiens, RPTEC): 4 µM; IC50 [2, 5]: 0.4 µM

Q: For `COC1/C=C\C=C(/C)C(=O)NC2=CC(=O)C(NCCN(C)CCNC3=C4CC(C)CC(OC)C(O)C(C)/C=C(\C)C(OC(N)=O)C(OC)/C=C\C=C(/C)C(=O)NC(=CC3=O)C4=O)=C(CC(C)CC(OC)C(O)C(C)/C=C(\C)C1OC(N)=O)C2=O` (stereo not shown) [Compound 483], which IC50 ([1]; Homo sapiens, RPTEC) is on record?
A: 1 µM

Q: And the IC50 ([2]; Homo sapiens, K562, bcr-abl fusion protein cancer line, MTS assay, read-out: K562 IC50)?
A: 0.07 µM

Q: Which IC50 [3] does the source give for `CO[C@H]1[C@@H](OC)C[C@H](C)[C@@H](OC)C2=CC(=O)C=C(NC(=O)/C(C)=C/C=C\[C@H](OC)[C@@H](OC(N)=O)/C(C)=C/[C@@H]1C)C2=O` [herbimycin A] here?
A: 0.399 µM

Q: What about the IC50 [4] of the same compound?
A: 0.0293 µM

Q: For `C[C@@H]1C[C@H]2O[C@@H]2/C=C\C=C\C(=O)Cc2c(Cl)c(O)cc(O)c2C(=O)O1` [radicicol], which “effect on RPTEC (separate study)” value [1, 6] is on record?
A: approximating those obtained for compound 237

Q: And the “effect on K562 (separate study)” value [2, 6]?
A: approximating those obtained for compound 237
